Results from ChEMBL document CHEMBL5360581, “Discovery of a novel dual functional phenylpyrazole-styryl hybrid that induces apoptotic and autophagic cell death in bladder cancer cells” (Eur J Med Chem, 2023).
Activity calls are given as the source filed them. No cut-off for these calls is given here.

Key:
[1] = Toxicity in Zebrafish embryo assessed as mild bradycardia at 50 uM administered for 4 hrs post fertilization and measured after 3 days post fertilization; parameters: species or system Danio rerio; conditions: in vivo, 72 h, time 3 day
[2] = Selectivity index, ratio of IC50 for cytotoxicity against human NHDF cells to IC50 for cytotoxicity against human EJ-28 cells
[3] = system: EJ-28; assay: Induction of cell cycle arrest in human EJ-28 cells assessed as accumulation of cells at S phase at 1.25 uM incubated for 48 hrs by propidium iodide staining based flow cytometry (reference value: 30%); format: functional
[4] = system: EJ-28; assay: Induction of autophagy in human EJ-28 cells assessed as upregulation of Atg3 expression at 5 to 12.5 uM incubated for 24 to 72 hrs by Western blot analysis; format: functional, cell-based; conditions: dose 5-12.5 µM, time 24-72 hrs
[5] = system: SV-HUC-1; assay: Induction of morphological changes in human SV-HUC-1 cells at 7.5 uM incubated for 24 to 72 hrs by microscopic analysis; format: functional, cell-based; conditions: time 24-72 hrs
[6] = system: EJ-28; assay: Induction of apoptosis in human EJ-28 cells assessed as downregulation of procaspase-3 expression incubated for 24 to 72 hrs by Western blotting analysis; format: functional, cell-based; conditions: time 24-72 hrs
[7] = system: EJ-28; assay: Induction of autophagy in human EJ-28 cells assessed as upregulation of AKT expression at 5 to 12.5 uM incubated for 24 hrs by Western blot analysis; format: functional, cell-based; conditions: dose 5-12.5 µM
[8] = system: EJ-28; assay: Induction of cell cycle arrest in human EJ-28 cells assessed as accumulation of cells at S phase at 5 uM incubated for 48 hrs by propidium iodide staining based flow cytometry (reference value: 30%); format: functional
[9] = system: EJ-28; assay: Anticancer activity against human EJ-28 cells cultured as 3D spheroids assessed as decrease in spheroid size at 5 to 20 uM measured upto 5 days by fluorescence microscopic analysis; format: functional, cell-based; conditions: dose 5-20 µM, time <= 5.0 day
[10] = system: EJ-28; assay: Induction of apoptosis in human EJ-28 cells assessed as upregulation of phosphorylated […] level incubated for 24 to 72 hrs by Western blotting analysis; format: functional, cell-based; conditions: time 24-72 hrs
[11] = system: A549; assay: Cytotoxicity against human A549 cells assessed inhibition of cell growth incubated for 72 hrs by MTT assay; format: functional, cell-based; conditions: A549, 72 h
[12] = system: EJ-28; assay: Induction of apoptosis in human EJ-28 cells assessed as upregulation of phosphorylated Bcl-2 level incubated for 24 to 72 hrs by Western blotting analysis; format: functional, cell-based; conditions: time 24-72 hrs
[13] = system: EJ-28; assay: Induction of autophagy in human EJ-28 cells assessed as upregulation of LC3B-2 expression at 5 to 12.5 uM incubated for 24 to 72 hrs by Western blot analysis; format: functional, cell-based; conditions: dose 5-12.5 µM, time 24-72 hrs
[14] = system: EJ-28; assay: Induction of autophagy in human EJ-28 cells assessed as upregulation of Atg16L1 expression at 5 to 12.5 uM incubated for 24 to 72 hrs by Western blot analysis; format: functional, cell-based; conditions: dose 5-12.5 µM, time 24-72 hrs
[15] = system: EJ-28; assay: Induction of apoptosis in human EJ-28 cells at 1.25 to 10 uM by AnnexinV-FITC/propidium iodide staining based flow cytometry analysis; format: functional, cell-based; conditions: dose 1.25-10 µM, time 24-72 hrs, TDE = time-dependent effect
[16] = Toxicity in Zebrafish embryo assessed as lack of pigmentation at 12.5 uM administered for 4 hrs post fertilization and measured after 3 days post fertilization; parameters: species or system Danio rerio; conditions: in vivo, 72 h, time 3 day
[17] = Toxicity in Zebrafish embryo assessed as mortality at 12.5 to 50 uM administered for 4 hrs post fertilization and measured after 6 days post fertilization; parameters: species or system Danio rerio; conditions: in vivo, 144 h, dose 12.5-50 µM, time 6 day
[18] = system: EJ-28; assay: Induction of autophagy in human EJ-28 cells assessed as upregulation of Atg5-Atg12 expression at 5 to 12.5 uM incubated for 24 to 72 hrs by Western blot analysis; format: functional, cell-based; conditions: dose 5-12.5 µM, time 24-72 hrs
[19] = system: EJ-28; assay: Inhibition of colony formation in human EJ-28 cells at 2.5 to 10 uM incubated for 10 days by crystal violet staining based assay; format: functional, cell-based; conditions: dose 2.5-10 µM, time 10.0 day
[20] = system: EJ-28; assay: Induction of autophagy in human EJ-28 cells assessed as downregulation of EGFR expression at 5 to 12.5 uM incubated for 24 hrs by Western blot analysis; format: functional, cell-based; conditions: dose 5-12.5 µM
[21] = Toxicity in Zebrafish embryo assessed as oedema at 12.5 uM administered for 4 hrs post fertilization and measured after 3 days post fertilization; parameters: species or system Danio rerio; conditions: in vivo, 72 h, time 3 day
[22] = Toxicity in Zebrafish embryo assessed as body curvature at 12.5 uM administered for 4 hrs post fertilization and measured after 3 days post fertilization; parameters: species or system Danio rerio; conditions: in vivo, 72 h, time 3 day
[23] = system: EJ-28; assay: Induction of autophagy in human EJ-28 cells assessed as increase in green fluorescence intensity at 5 to 12.5 uM incubated for 24 hrs by flow cytometry analysis; format: functional, cell-based; conditions: dose 5-12.5 µM
[24] = system: EJ-28; assay: Induction of cell cycle arrest in human EJ-28 cells assessed as accumulation of cells at sub-G0/G1 phase at 10 uM incubated for 48 hrs by propidium iodide staining based flow cytometry (reference value: 48%); format: functional
[25] = system: T-24; assay: Induction of morphological changes in human T24 cells assessed as intracellular vacuolization at 7.5 uM incubated for 48 hrs by microscopic analysis; format: functional, cell-based
[26] = system: HT-1080; assay: Antiproliferative activity against human HT-1080 cells assessed as reduction in cell viability at 20 uM measured for 72 hrs by MTT assay; format: functional, cell-based
[27] = system: EJ-28; assay: Induction of autophagy in human EJ-28 cells assessed as upregulation of Atg7 expression at 5 to 12.5 uM incubated for 24 to 72 hrs by Western blot analysis; format: functional, cell-based; conditions: dose 5-12.5 µM, time 24-72 hrs
[28] = Toxicity in Zebrafish embryo assessed as mild bradycardia at 12.5 to 25 uM administered for 4 hrs post fertilization and measured after 3 days post fertilization; parameters: species or system Danio rerio; conditions: in vivo, 72 h, dose 12.5-25 µM, time 3 day
[29] = system: EJ-28; assay: Induction of apoptosis in human EJ-28 cells assessed as upregulation of cleaved caspases-8 expression by Western blotting analysis; format: functional, cell-based; conditions: time 24-72 hrs
[30] = system: EJ-28; assay: Induction of apoptosis in human EJ-28 cells assessed as upregulation of PUMA expression incubated for 48 hrs by Western blotting analysis; format: functional, cell-based
[31] = system: EJ-28; assay: Anticancer activity against human EJ-28 cells cultured as 3D spheroids assessed as decrease in spheroid volume at 5 to 20 uM measured upto 5 days by fluorescence microscopic analysis; format: functional, cell-based; conditions: dose 5-20 µM, time <= 5.0 day
[32] = system: EJ-28; assay: Induction of cell cycle arrest in human EJ-28 cells assessed as accumulation of cells at G2/M phase at 5 uM incubated for 48 hrs by propidium iodide staining based flow cytometry (reference value: 20%); format: functional
[33] = system: EJ-28; assay: Induction of apoptosis in human EJ-28 cells assessed as upregulation of PARP expression incubated for 48 to 72 hrs by Western blotting analysis; format: functional, cell-based; conditions: time 48-72 hrs
[34] = system: EJ-28; assay: Induction of apoptosis in human EJ-28 cells assessed as upregulation of Bcl-xL expression incubated for 24 hrs by Western blotting analysis; format: functional, cell-based
[35] = system: EJ-28; assay: Induction of cell cycle arrest in human EJ-28 cells assessed as accumulation of cells at G2/M phase at 1.25 uM incubated for 48 hrs by propidium iodide staining based flow cytometry (reference value: 20%); format: functional
[36] = Toxicity in Zebrafish embryo assessed as adverse phenotype at 12.5 to 50 uM administered for 4 hrs post fertilization and measured after 6 days post fertilization; parameters: species or system Danio rerio; conditions: in vivo, 144 h, dose 12.5-50 µM, time 6 day
[37] = system: EJ-28; assay: Induction of ROS generation in human EJ-28 cells at 1.25 to 10 uM incubated for 48 hrs by DCFDA staining based flow cytometry analysis; format: functional, cell-based; conditions: dose 1.25-10 µM

Q: With `O=[N+]([O-])c1cccc(/C=C/c2cc(-c3cc(Cl)ccc3O)n(-c3ccccc3)n2)c1` as the compound, how does the Activity [1] read?
A: Toxic

Q: What about the “Ratio IC50” value [2] of the same compound?
A: 2.6

Q: And the Activity [3]?
A: 27%

Q: And the Activity [4]?
A: inactive

Q: What about the Activity [5] of the same compound?
A: inactive

Q: And the Activity [6]?
A: Active

Q: What about the Activity [7] of the same compound?
A: Active

Q: And the Activity [8]?
A: 21%

Q: And the Activity [9]?
A: Active

Q: And the Activity [10]?
A: Active

Q: What about the IC50 [11] of the same compound?
A: 15.1 µM

Q: What about the Activity [12] of the same compound?
A: Active

Q: What about the Activity [13] of the same compound?
A: Active

Q: And the Activity [14]?
A: inactive

Q: What about the Activity [15] of the same compound?
A: Tde

Q: What about the Activity [16] of the same compound?
A: Non-Toxic

Q: And the Activity [17]?
A: Non-Toxic

Q: What about the Activity [18] of the same compound?
A: Active

Q: What about the inhibition [19] of the same compound?
A: Active

Q: What about the Activity [20] of the same compound?
A: Active

Q: What about the Activity [21] of the same compound?
A: Non-Toxic

Q: And the Activity [22]?
A: Non-Toxic

Q: And the Activity [23]?
A: Active

Q: And the Activity [24]?
A: 58%

Q: What about the Activity [25] of the same compound?
A: Active

Q: And the Activity [26]?
A: Active

Q: What about the Activity [27] of the same compound?
A: inactive

Q: And the Activity [28]?
A: Non-Toxic

Q: What about the Activity [29] of the same compound?
A: Dose-Dependent Effect

Q: What about the Activity [30] of the same compound?
A: Active

Q: What about the Activity [31] of the same compound?
A: Active

Q: What about the Activity [32] of the same compound?
A: 19%

Q: And the Activity [33]?
A: inactive

Q: What about the Activity [34] of the same compound?
A: inactive

Q: And the Activity [35]?
A: 18%

Q: What about the Activity [36] of the same compound?
A: Non-Toxic

Q: What about the Activity [37] of the same compound?
A: inactive
